# Source: patent publication US11590075B2, “Methods and products for reducing adhesions” (priority 2017, dated 2023)
# Columns and labels:
# HNEC-ALI cultures = assay: Wound healing (migration) scratch assay, HNEC-ALI; assay type: cell-based, human; settings: 1, 5, 10, 20 mM for up to 68 hours; untreated healed by 68 hours
# Experimental: HNECs were grown until 80% confluent then harvested for seeding onto collagen coated 6.5 mm permeable Transwell plates (BD Biosciences, San Jose, Calif., USA) at a density of 5×10^4 cells per well. Cells were maintained with B-ALI™ growth medium for 2-3 days in a cell incubator at 37° C. with 5% CO2. On day 3 after seeding, the apical media was removed and the basal media replaced with B-ALI™ differentiation media, exposing the apical cell surface to the atmosphere. Human nasal epithelial cultures at air liquid interface (HNEC-ALI) were maintained for a minimum of 14 days for development of tight junctions and 28 days for cilia generation. In the fibroblast wound closure assay, fibroblasts were seeded in 24 well plates, stained with CellTrace™ Violet (Invitrogen/Life Technologies, USA) and allowed to get 80% confluent in 24 hours. A straight vertical scratch was made down through the fibroblast and HNEC-ALI cell monolayers by using a 200 μl pipette tip. […] The wound closure (cell migration) was recorded using time-lapse LSM700 confocal scanning laser microscopy (Zeiss Microscopy, Germany), with an image recorded every 4 hours in a temperature and CO2 controlled chamber. Data was analysed using Image.
# [1] = test system: IL-6 production in human nasal epithelial cells; assay: IL-6 ELISA, HNECs with Poly (I:C); assay type: cell-based; settings: 24 hours, in the presence of Poly (I:C) LMW
# Experimental: (§1) Supernatants were collected from HNECs and fibroblasts after 24 hours of exposure with different concentrations of deferiprone in the presence/absence of the pro-inflammatory agent Poly (I:C) (10 μg/ml) or IL-1β (10 ng/ml Sigma, Saint Louis, USA) respectively. Interleukin-6 (IL-6) protein levels were estimated with an ELISA kit using rat anti-human IL-6 antibodies (BD Biosciences, New Jersey, USA), according to the manufacturer's instructions. All measurements were performed in duplicate using a FLUOstar OPTIMA plate reader (BMG Labtech, Ortenberg, Germany). The tissue sample concentration was calculated from a standard curve and corrected for protein concentration.
# primary fibroblasts [2] = assay: Alamar Blue proliferation assay; assay type: cell-based
# Experimental: Alamar Blue Proliferation Assay Fibroblasts were seeded at a density of 2×10^4 cells/well in 96 well plates (Nuns, Sydney Australia) and cultured at 37° C., 5% CO2 for 24 hours Media was aspirated and cells were washed twice in phosphate buffered saline. The following treatments were used: • (i) No treatment control (NTC)—DMEM (Invitrogen, Sydney Australia) containing Penicillin at 500 U/mL, Streptomycin and Amphotericin B (Sigma-Aldrich, MO) at 0.5 mg/mL, 10% Fetal Bovine Serum. • (ii) 5 mM of Deferiprone dissolved in control media. • (iii) 10 mM Deferiprone dissolved in control media. • (iv) 20 mM Deferiprone dissolved in control media. Readings were taken at 4, 24, 48 and 72 hours. At each time point media was aspirated and fresh control media with 10% Alamar Blue was added and incubated in the dark for 6 hours at 37° C. 5% CO2. The plate was then read at 570 and 595 nm according to manufacturer's instructions. Fibroblasts proliferation was measured using the Alamar Blue reduction assay. The assay is based on use of resazurin, a non-toxic, cell permeable compound which is blue in colour and non-fluorescent. Resazurin is reduced to resorufin a compound that is red in colour and highly fluorescent. Viable cells continuously convert resazurin to resorufin, increasing the overall fluorescence and colour of the media surrounding cells.
# [3] = test system: primary human nasal fibroblasts; assay: Wound healing (migration) scratch assay, fibroblasts; assay type: cell-based; settings: for wound healing of primary fibroblasts: after 44 hours
# Experimental: In the fibroblast wound closure assay, fibroblasts were seeded in 24 well plates, stained with CellTrace™ Violet (Invitrogen/Life Technologies, USA) and allowed to get 80% confluent in 24 hours. A straight vertical scratch was made down through the fibroblast and HNEC-ALI cell monolayers by using a 200 μl pipette tip. The media and cell debris was aspirated carefully and culture media with different concentrations of deferiprone (1 mM, 5 mM, 10 mM, 20 mM) or media only (negative control) added to each well for 72 hours. At time zero, cells were treated with 1 μg/ml mitomycin (Accord Healthcare Inc, NDC 16729-108-11, USA) to inhibit cell proliferation. The wound closure (cell migration) was recorded using time-lapse LSM700 confocal scanning laser microscopy (Zeiss Microscopy, Germany), with an image recorded every 4 hours in a temperature and CO2 controlled chamber. Data was analysed using Image.
# [4] = test system: type I collagen release in primary human nasal fibroblasts; assay: Collagen assay (procollagen type I C-peptide ELISA); assay type: cell-based; settings: different concentrations (1, 5, 10, 20 mM)
# Experimental: Primary human nasal fibroblasts were seeded in 24-well tissue-culture plates at a density of 5×10^5 grown in DMEM until confluent. […] Following treatment, the supernatant was collected and the protein level of type I collagen was measured with a procollagen type I C-peptide ELISA kit (Takara Bio Inc, Otsu, Japan). Experimental procedures followed the manufacturer's instruction. Briefly, 20 μl of culture medium and 100 μl of the antibody-POD conjugate solution were sequentially added into microtiter plates and reacted for 3 hours at 37° C. After 4× washing with washing buffer solution (1×PBST), 100 μl of the substrate solution was added and incubated for 15 minutes at RT. Finally, the stop solution (100 μl) was added and corresponding absorbance was recorded at 450 nm using a FLUOstar OPTIMA plate reader (BMG Labtech, Ortenberg, Germany).
# [5] = test system: IL-6 production in nasal fibroblast cells; assay: IL-6 ELISA, nasal fibroblasts with IL-1β; assay type: cell-based, human; settings: in the presence or absence of IL-13 (so in the source), after 24 hours
# Experimental: as §1
# primary fibroblasts [6] = assay: Fibroblast wound healing protocol (gap closure, migration); assay type: cell-based
# Experimental: 1. Fibroblast Wound Healing Protocol Fibroblasts were stained with CellTrace Proliferation Kit (Thermo-Fisher Scientific, Life Technologies, CA) and prepared in a suspension of 3×10^5 cells/mL of DMEM (Invitrogen, Sydney Australia) containing Penicillin at 500 U/mL, Streptomycin and Amphotericin B (Sigma-Aldrich, MO) at 0.5 mg/mL, 10% Fetal Bovine Serum. 70 uL of this suspension were seeded into each chamber inserts of the Ibidi culture-insert 24 (Ibidi GmbH, Munich, Germany) and cultured for 12 hours at 37° C., 5% CO2. The inserts were then removed with sterile forceps and cells washed twice in phosphate buffered saline. The following treatments were used: • (i) No treatment control (NTC) DMEM (Invitrogen, Sydney Australia) containing Penicillin at 500 U/mL, Streptomycin and Amphotericin B (Sigma-Aldrich, MO) at 0.5 mg/mL 10% Fetal Bovine Serum. • (ii) 5 mM of Deferiprone dissolved in control media. • (iii) 10 mM Deferiprone dissolved in control media. • (iv) 20 mM Deferiprone dissolved in control media. The effects on cells were recorded in real time at 37° C., 5% CO2 and imaged at intervals of 0, 8, 24 and 48 hours using Zeiss LSM700 Confocal (Carl Zeiss, Oberkochen, Germany) until gap closure. Image properties: DAPI blue signal; 405 nm laser; line step 2; line average 4; bit 12; zoom 0.5; 512×512 pixels; time series.
# [7] = test system: primary human nasal fibroblasts; assay: Cytotoxicity, LDH assay, nasal fibroblasts; assay type: cell-based; settings: exposure 1 h, 2 h, 3 h, 4 h, 5 h and 6 h; deferiprone 1, 5, 10, 20 mM (p>0.05); Triton X-100 0.5%
# Experimental: Sinonasal tissue was biopsied from paranasal sinus mucosa and transferred to a 6-well culture plate with 2 ml Dulbecco's Modified Eagle's medium (DMEM, Invitrogen, UK) supplemented with 1:100 L-glutamine, 10% Fetal bovine serum (FBS, Sigma-Aldrich), 1:100 ascorbic acid 2-phosphate, and 1:100 penicillin streptomycin (Gibco, Life Technologies) and incubated. Every 2-3 days, the tissue was washed gently with 1 ml phosphate-buffered saline (PBS) and medium was replaced with 1.5 ml fresh medium until fibroblasts became confluent after approximately 2 weeks. Once confluent, fibroblasts were washed with 2 ml PBS, trypsinized and collected followed by centrifugation at 400×g for 8 minutes. The supernatant was removed and pellet resuspended in 1 ml PBS along with 50 μl Dynabeads Epithelial Enrich (Invitrogen, USA). The tube was wrapped in parafilm and placed on a rotor mixer for 20 minutes at room temperature (RT). Supernatant containing fibroblasts were transferred to a T25 tissue culture flask and the tube containing the remaining beads discarded Primary human fibroblasts or epithelial cells were grown in DMEM and BEGEM (Lonza, Walkersville, USA) medium respectively. […] The optical density (OD) was measured at 490 Mil on a FLUOstar OPTIMA plate reader (BMG Labtech, Ortenberg, Germany), Cell culture studies were performed as three independent experiments.
# [8] = test system: primary human nasal epithelial cells (HNECs); assay: Cytotoxicity, LDH assay, HNECs; assay type: cell-based; settings: exposure 1 h, 2 h, 3 h, 4 h, 5 h and 6 h; deferiprone 1, 5, 10, 20 mM (p>0.05); Triton X-100 0.5%
# Description: Primary human nasal epithelial […] harvested from nasal polyps by gentle brushing in a method described by Ramezanpour et al. (2016) “Th17 cytokines disrupt the airway mucosal barrier in chronic rhinosinusitis” Mediators of inflammation; 2016: 9798206. doi: 10.1155/2016/9798206. Extracted cells were suspended in Bronchial Epithelial Growth Media (BEGM, CC-3170, Lonza, Walkersville, Md., USA), supplemented with 2% Ultroser G (Pall Corporation, Port Washington, N.Y., USA). The cell suspension was depleted of macrophages using anti-CD68 (Dako, Glostrup, Denmark) coated culture dishes, and HNECs were maintained with B-ALITM growth medium (Lonza, Walkersville, USA) in collagen coated flasks (Thermo Scientific, Walthman, Mass., USA) in a cell incubator at 37° C. with 5% CO2. Primary human fibroblasts or epithelial cells were grown in DMEM and BEGEM (Lonza, Walkersville, USA) medium respectively. Cells were maintained in a fully humidified incubator with 5% CO2 at 37° C. prior to cytotoxicity studies. […] The optical density (OD) was measured at 490 Mil on a FLUOstar OPTIMA plate reader (BMG Labtech, Ortenberg, Germany), Cell culture studies were performed as three independent experiments.
structure (smiles),measurement,setting,value
"Cc1c(O)c(=O)ccn1C [deferiprone, 3-hydroxy-1,2-dimethylpyridin-4(1H)-one]",wound healing in HNEC-ALI cultures,HNEC-ALI cultures,did not show any significant delay in wound healing
same,reduction of IL-6 protein concentrations in HNECs,"[1]; 10 mM, p=0.001",80%
same,reduction of IL-6 protein concentrations in HNECs,"[1]; 20 mM, p=0.0001",96%
same,inhibition of fibroblast proliferation (Alamar Blue),"primary fibroblasts [2]; 5, 10, 20 mM deferiprone, readings at 4, 24, 48, 72 hours, 2-way ANOVA",significant dose dependent effect
same,time course of inhibition of proliferation,primary fibroblasts [2]; occurred over a period of at least 24 to 72 hours,time dependent
same,wound healing of primary fibroblasts,[3]; 5 mM,significantly delayed healing
same,wound healing of primary fibroblasts,[3]; 10 mM,significantly delayed healing
same,wound closure of primary fibroblasts,"[3]; 20 mM, at 28 h and all time points thereafter, untreated closed after 44 hours",significant delay in wound closure
same,collagen protein concentrations in supernatants of fibroblast monolayers,"[4]; 24 hours as printed, absence of ASC, p<0.0001",significantly reduced collagen protein concentrations
same,collagen secretion in the presence of L-Ascorbic acid-2 phosphate (ASC),[4]; with ASC,significantly inhibited collagen secretion in a dose dependent manner
same,secretion of IL-6 in nasal fibroblasts,[5],did not alter the secretion of IL-6
same,closure of void in fibroblasts,"primary fibroblasts [6]; 20 mM deferiprone, up to 48 hours, control cells close the void after 48 hours",minimal closure
same,fibroblast migration,"primary fibroblasts [6]; within 48 hours, 5, 10, 20 mM",inhibited fibroblast migration
same,LDH release (cytotoxicity) in fibroblasts,[7],no significant increase in LDH release
same,LDH release (cytotoxicity) in HNECs,[8],no significant increase in LDH release
